Laboratory results taken from patent US12303517B1, “Oral testosterone therapy” (Lipocine, Inc., priority 2016, dated 2025).

Experiment: Single fixed dose dosing regimen examples for safety and efficacy (serum T Cmax / Cavg criteria), with food
Format: in vivo, human
[1] = Regimen 1, QD 500 mg T13, with food with at least 10 g of fat
[2] = Regimen 2, QD 700 mg T13, with food with at least 10 g of fat
[3] = Regimen 3, QD 750 mg T13, with food with at least 10 g of fat
[4] = Regimen 4, QD 800 mg T13, with food with at least 10 g of fat
[5] = Regimen 5, QD 900 mg T13, with food with at least 10 g of fat
[6] = Regimen 6, QD 1000 mg T13, with food with at least 10 g of fat
[7] = Regimen 7, QD 1100 mg T13, with food with at least 10 g of fat
[8] = Regimen 8, QD 1150 mg T13, with food with at least 10 g of fat
[9] = Regimen 9, QD 1250 mg T13, with food with at least 10 g of fat
[10] = Regimen 10, BID-equal dose (AM/PM) 250/250 mg T13, with food with at least 10 g of fat
[11] = Regimen 11, BID-equal dose (AM/PM) 350/350 mg T13, with food with at least 10 g of fat

With `CCCCCCCCCCCCC(=O)O[C@H]1CC[C@H]2[C@@H]3CCC4=CC(=O)CC[C@]4(C)[C@H]3CC[C@]12C` [T13, testosterone tridecanoate] as the compound, how does the “Cavg > 300 ng/dL ≥75% patients” value [1] read?
The value was “No”.

And the “Cavg > 300 ng/dL ≥80% patients” value [1]?
Its value is “No”.

And the “Cmax > 1500 ng/dL <15% patients” value [1]?
Its value is “Yes”.

What about the “Cmax > 1500 ng/dL <20% patients” value [1] of the same compound?
Its value is “Yes”.

What about the “Cmax > 1800 ng/dL <5% patients” value [1] of the same compound?
The value was “Yes”.

And the “Cmax > 1800 ng/dL <10% patients” value [1]?
Its value is “Yes”.

What about the “Cmax > 2500 ng/dL <2% patients” value [1] of the same compound?
The value was “Yes”.

What about the “Cmax > 2500 ng/dL none of patients” value [1] of the same compound?
The value was “Yes”.

And the “Cavg > 300 ng/dL ≥75% patients” value [2]?
The value was “No”.

And the “Cavg > 300 ng/dL ≥80% patients” value [2]?
The value was “No”.

And the “Cmax > 1500 ng/dL <15% patients” value [2]?
Its value is “Yes”.

What about the “Cmax > 1500 ng/dL <20% patients” value [2] of the same compound?
Its value is “Yes”.

And the “Cmax > 1800 ng/dL <5% patients” value [2]?
The value was “Yes”.

And the “Cmax > 1800 ng/dL <10% patients” value [2]?
Its value is “Yes”.

What about the “Cmax > 2500 ng/dL <2% patients” value [2] of the same compound?
Its value is “Yes”.

And the “Cmax > 2500 ng/dL none of patients” value [2]?
Its value is “Yes”.

What about the “Cavg > 300 ng/dL ≥75% patients” value [3] of the same compound?
Its value is “Yes”.

And the “Cavg > 300 ng/dL ≥80% patients” value [3]?
The value was “No”.

What about the “Cmax > 1500 ng/dL <15% patients” value [3] of the same compound?
Its value is “Yes”.

And the “Cmax > 1500 ng/dL <20% patients” value [3]?
The value was “Yes”.

And the “Cavg > 300 ng/dL ≥75% patients” value [4]?
Its value is “Yes”.

What about the “Cavg > 300 ng/dL ≥80% patients” value [4] of the same compound?
The value was “Yes”.

And the “Cavg > 300 ng/dL ≥75% patients” value [5]?
The value was “Yes”.

And the “Cavg > 300 ng/dL ≥80% patients” value [5]?
Its value is “Yes”.

What about the “Cmax > 1500 ng/dL <15% patients” value [5] of the same compound?
Its value is “Yes”.

What about the “Cmax > 1500 ng/dL <20% patients” value [5] of the same compound?
The value was “Yes”.

What about the “Cmax > 1800 ng/dL <5% patients” value [5] of the same compound?
The value was “Yes”.

What about the “Cmax > 1800 ng/dL <10% patients” value [5] of the same compound?
The value was “Yes”.

What about the “Cmax > 2500 ng/dL <2% patients” value [5] of the same compound?
The value was “Yes”.

And the “Cmax > 2500 ng/dL none of patients” value [5]?
Its value is “Yes”.

What about the “Cavg > 300 ng/dL ≥75% patients” value [6] of the same compound?
Its value is “Yes”.

And the “Cavg > 300 ng/dL ≥80% patients” value [6]?
The value was “Yes”.

What about the “Cmax > 1500 ng/dL <15% patients” value [6] of the same compound?
Its value is “Yes”.

And the “Cmax > 1500 ng/dL <20% patients” value [6]?
The value was “Yes”.

What about the “Cmax > 1800 ng/dL <5% patients” value [6] of the same compound?
The value was “Yes”.

What about the “Cmax > 1800 ng/dL <10% patients” value [6] of the same compound?
Its value is “Yes”.

What about the “Cmax > 2500 ng/dL <2% patients” value [6] of the same compound?
The value was “Yes”.

What about the “Cmax > 2500 ng/dL none of patients” value [6] of the same compound?
Its value is “Yes”.

What about the “Cavg > 300 ng/dL ≥75% patients” value [7] of the same compound?
Its value is “Yes”.

And the “Cavg > 300 ng/dL ≥80% patients” value [7]?
The value was “Yes”.

What about the “Cmax > 1500 ng/dL <15% patients” value [7] of the same compound?
Its value is “Yes”.

And the “Cmax > 1500 ng/dL <20% patients” value [7]?
The value was “Yes”.

And the “Cmax > 1800 ng/dL <5% patients” value [7]?
Its value is “Yes”.

And the “Cmax > 1800 ng/dL <10% patients” value [7]?
The value was “Yes”.

What about the “Cmax > 2500 ng/dL <2% patients” value [7] of the same compound?
The value was “Yes”.

And the “Cmax > 2500 ng/dL none of patients” value [7]?
The value was “Yes”.

What about the “Cavg > 300 ng/dL ≥75% patients” value [8] of the same compound?
Its value is “Yes”.

And the “Cavg > 300 ng/dL ≥80% patients” value [8]?
Its value is “Yes”.

And the “Cmax > 1500 ng/dL <15% patients” value [8]?
The value was “No”.

What about the “Cmax > 1500 ng/dL <20% patients” value [8] of the same compound?
Its value is “Yes”.

And the “Cmax > 1800 ng/dL <5% patients” value [8]?
The value was “Yes”.

And the “Cmax > 1800 ng/dL <10% patients” value [8]?
The value was “Yes”.

What about the “Cmax > 2500 ng/dL <2% patients” value [8] of the same compound?
The value was “Yes”.

And the “Cmax > 2500 ng/dL none of patients” value [8]?
The value was “No”.

And the “Cavg > 300 ng/dL ≥75% patients” value [9]?
The value was “Yes”.

And the “Cavg > 300 ng/dL ≥80% patients” value [9]?
The value was “Yes”.

And the “Cmax > 1500 ng/dL <15% patients” value [9]?
Its value is “No”.

And the “Cmax > 1500 ng/dL <20% patients” value [9]?
Its value is “No”.

And the “Cmax > 1800 ng/dL <5% patients” value [9]?
Its value is “No”.

What about the “Cmax > 1800 ng/dL <10% patients” value [9] of the same compound?
Its value is “No”.

And the “Cmax > 2500 ng/dL <2% patients” value [9]?
The value was “No”.

And the “Cmax > 2500 ng/dL none of patients” value [9]?
Its value is “No”.

And the “Cavg > 300 ng/dL ≥75% patients” value [10]?
Its value is “No”.

And the “Cavg > 300 ng/dL ≥80% patients” value [10]?
The value was “No”.

And the “Cmax > 1500 ng/dL <15% patients” value [10]?
Its value is “Yes”.

And the “Cmax > 1500 ng/dL <20% patients” value [10]?
The value was “Yes”.

What about the “Cmax > 1800 ng/dL <5% patients” value [10] of the same compound?
The value was “Yes”.

What about the “Cmax > 1800 ng/dL <10% patients” value [10] of the same compound?
The value was “Yes”.

And the “Cmax > 2500 ng/dL <2% patients” value [10]?
The value was “Yes”.

What about the “Cmax > 2500 ng/dL none of patients” value [10] of the same compound?
Its value is “Yes”.

And the “Cavg > 300 ng/dL ≥75% patients” value [11]?
The value was “No”.

And the “Cavg > 300 ng/dL ≥80% patients” value [11]?
Its value is “No”.

And the “Cmax > 1500 ng/dL <15% patients” value [11]?
Its value is “Yes”.

And the “Cmax > 1500 ng/dL <20% patients” value [11]?
The value was “Yes”.

What about the “Cmax > 1800 ng/dL <5% patients” value [11] of the same compound?
The value was “Yes”.

What about the “Cmax > 1800 ng/dL <10% patients” value [11] of the same compound?
Its value is “Yes”.

And the “Cmax > 2500 ng/dL <2% patients” value [11]?
Its value is “Yes”.

What about the “Cmax > 2500 ng/dL none of patients” value [11] of the same compound?
Its value is “Yes”.
